Consider 2 compounds from patent publication US8613948B2, “Treatment of faecal incontinence and other conditions with 1R, 2S-methoxamine” (Norgine BV, priority 2001, dated 2013).

What is called pEC50 is the negative decadic logarithm of the EC50, by convention in mol/L. One may read the EC50 as the concentration needed to bring the measured effect to its halfway point.

pEC50: −log10 of the molar value. Like-named read-outs stand apart in the source and are kept apart here.

For data set [1], the system named is pig internal anal sphincter muscle. Put plainly: In vitro contraction of internal anal sphincter muscle strips in superfusion organ bath. Particulars: for pEC50 / EC50: Sus scrofa; for pEC50: IAS smooth muscle strips, n=24(4), read-out: EC50 values; for EC50: pig IAS strips, Table 1, read-out: EC50 value μM (±SE); for contraction of smooth muscle strips from the IAS: dose range 10^−2M to 10^−8M. Format: cell-based. The protocol: Tissue was obtained from female Large White pigs from a local abattoir. Pieces of internal anal sphincter muscle were cut and the tissue was transferred immediately to Krebs solution at 4° C. (120 mM NaCl, 5.9 mM KCl, 15.4 mM Na2HCO3, 1.2 mM NaH2PO4, 2.5 mM CaCl2, 1.2 mM MgCl2, 11.5 mM glucose, equilibrated with 97% oxygen and 3% carbon dioxide to maintain the pH at 7.4±0.05). The epithelium of the anal canal was removed along with the submucosa. Strips of the internal anal sphincter (IAS) were cut, each measuring approximately 1×1×7 mm, weighing 2 mg to 8 mg and containing parallel muscle bundles. Fine 5-0 silk ligatures were tied to each end and the strips mounted for isometric tension recording in superfusion organ baths (capacity 0.2 ml)^19 as shown in FIG. 1. The muscle strip 1 is held by a thread 2 to secure it in position within the Perspex jacket 3. The strips were perfused continuously with Krebs solution (37° C.) at a rate of 1 ml/min introduced via an inflow 4 and exiting via an overflow 5. This apparatus allows six strips to be studied simultaneously. The strips were initially loaded with 1 g tension and allowed to equilibrate for at least 90 minutes. Tension was measured by Pioden dynamometer UF1 transducer (Pioden Controls, Canterbury, UK) involving a tension transducer 6 and ring electrodes 7 and 7a, and recorded both on a six channel Tekman 900 pen recorder (Tekman Electronics, Learnington Spa, UK) and using Chart v3.6 and MacLab Data Acquisition System (AD Instruments, Australia).
Phenylephrine (Sigma Chemical Co., Poole, UK), methoxamine racemate and the four methoxamine isomers were dissolved in Krebs solution and tested for their effect on IAS tone. Methoxamine racemate, that is to say, an equimolar mixture of the four isomers, was produced by Prosyth Limited, Acton, Sudbury, Suffolk. The four isomers (called peaks 1 to 4), were separated as described in Example 3. Peak 2 is 1R,2S-methoxamine. The 1R,2S isomer was also synthesised as described in Example 4. It has been confirmed by crystallography that peak 2 is 1R,2S-methoxamine.
IAS strips developed intrinsic tone during the equilibrium period. After equilibration increasing concentrations of each of the test compounds were added for 20 second periods, with intervening washout periods of at least ten minutes, until the tone had returned to baseline.
Results are expressed as mean (standard error of the mean) and the number of surgical specimens from which these strips were derived. A maximum of six strips were used from each pig for each test compound.
Test compound-induced increases in tone were calculated by taking the peak tone after application of the test compound and […]. This figure was then expressed as a percentage of maximal increase in tone seen across the dose range used (10^−2M to 10^−8M). All analysis was performed using Chart v3.6 software.
EC50 values were calculated by plotting concentration-response curves for each muscle strip. The dose causing 50% of maximal contraction was calculated by linear regression. EC50 values for different drugs were compared using a two-tailed t-test, assuming unequal variance and with p<0.05 considered significant.

Data set [2] deals with patients with incontinence. To be noted: cited from earlier work.
Data set [3] concerns human subjects. Particulars: cited from earlier work.

Turning to `COc1ccc(OC)c(C(O)C(C)N)c1` (racemic) [methoxamine racemate, 2-amino-1-(2,5-dimethoxyphenyl)-1-propanol], in data set [1], the pEC50 is 7.24, the EC50 came out at 58.3 µM and the “contraction of smooth muscle strips from the IAS” value was “caused a dose-dependent contraction”.

With `CNC[C@H](O)c1cccc(O)c1` [Phenylephrine], the “subjective improvement in continence” value in data set [2] (10% gel, patients with faecal leakage after ileoanal pouch construction) is “significantly greater subjective improvement in continence compared to placebo”. In data set [2] (10% gel, randomised controlled trial, 36 patients with incontinence), the “incontinence scores, resting anal canal pressure or anodermal blood flow” value is on record as “no significant overall improvements”. For the same compound, the local side effect result in data set [2] (topical preparations of the order of 30-40% by weight) was “perianal burning has been reported”. For the same compound, in data set [1], the pEC50 was 4.12. Moreover, in data set [1], the EC50 is 74.7 µM. Besides, in data set [1], the “contraction of smooth muscle strips from the IAS” value was “caused a dose-dependent contraction”. The “duration of rise in resting anal pressure (median)” value in data set [3] (10% gel, normal human subjects) was 7 h. The “rise in resting anal pressure” value was “no significant rise in resting anal pressure” in data set [3] (10% to 20% by weight gels, patients with low resting pressures and incontinence); “increases did achieve statistical significance” in data set [3] (30% and 40% gels, patients with low resting pressures and incontinence); 33% in data set [3] (gel comprising 10% by weight, applied to the anus of normal human subjects).
